Data published in patent US20090264342A1, “COMPOSITIONS AND METHODS FOR ANTIBIOTIC POTENTIATION AND DRUG DISCOVERY” (priority 2006, published 2009).

Tested on: wild type E. coli
Experiment: Growth of wild type E. coli in the presence of quinolone (OD600)
Assay type: cell-based
Text: Each deletion strain was constructed by replacing the chromosomal copy of the relevant gene in a wild type E. coli strain (K-12) with a selectable antibiotic resistance gene, essentially as described, to create a precise gene deletion (Datsenko, K. A. and Wanner, B. L., “One-step inactivation of chromosomal genes in Escherichia coli K-12 using PCR products”, Proc Natl Acad Sci USA, 97, 6640-6645, […]); Baba, T., Ara, T., Okumura, Y., iki Hasegawa, M., Takai, Y., Baba, M., Oshima, T., Tomita, M., Wanner, B. and Mori, H. (2003) Systematic construction of single gene deletion mutants in Escherichia coli K-12 (in preparation) and see also the web site at ecoli.aist-nara.ac.jp/gb5/Resources/deletion/deletion.html).
For each mutant, the ratio of growth of the mutant in the presence of a sublethal concentration of quinolone to growth of the mutant in the absence of quinolone was calculated after 12 hours of growth at 37° C., based on OD600 measurements. […]

Compound: CCn1cc(C(=O)O)c(=O)c2cc(F)c(N3CCNCC3)cc21 [Nor, norfloxacin]
- bacterial growth, % of wild type levels (0.05 μg/mL Nor (sublethal concentration)): 80%
- concentration that fully inhibits growth of wild type E. coli (lethal concentration) (wild type E. coli): 0.1 µg/mL
